Reference: patent publication US5977298A, “Calcitonin derivatives” (Kvowa Hakko Kogyo Co., Ltd., priority 1995, dated 1999)
Bridges are numbered along the chain shown (N, C = ends). Where no end group is shown, it is not given here. [ ]: non-standard residue; d: D form. Gla = N[C@@H](CC(C(=O)O)C(=O)O)C(=O)O; Hyp = O=C(O)[C@@H]1C[C@@H](O)CN1; βAla = NCCC(=O)O

How the values were obtained:
[1] = tested on: Osteoclast-like multinucleated cells (osteoclasts); experiment: Calcitonin-like biological activity: bone resorption pit formation by osteoclasts on ivory pieces; assay type: cell-based, mouse; settings: 48 hours
Description: 1-1 Preparation of Osteoclasts
Osteoclast-like multinucleated cells which were derived by coculturing mouse osteoblasts and bone marrow cells on collagen gel according to the method described in Akatsu T. et al., J. Bone Miner. Res., 7, 1297-1306 (1992) were used as osteoclasts. That is, osteoblasts derived from mouse vault of skull (5×10^5 cells) were put in a 100 mm dish (IWAKI) collagen-coated with Cellmatrix Type I-A (Nitta Gelatin Co., Ltd.) and cultured for one day in a CO2 incubator (37° C., 5% CO2) [medium: αMEM+10% FCS (both by GIBCO Co., Ltd.)]. After the medium was removed, mouse bone marrow cells (6×10^6 cells) were put on the osteoblasts and 10^-8 M calcitriol (Wako Pure Chemical Industries, Ltd.) and 10^-7 M dexamethasone (Sigma Chemical Co.) were added thereto. TRAP-positive multinucleate cells (osteoclast-like cells) which were obtained 7 days after the inoculation of osteoblasts were used as osteoclasts.
1-2 Culturing of Osteoclasts on Ivory Pieces
After removal of the medium from the dish, and rinsing with PBS(-), a mixture of collagenase and dispase (collagenase: Wako Pure Chemical Industries, Ltd., dispase: Godo Shusei Co., Ltd.) was added thereto to suspend the cells. The cell suspension was put into a tube and centrifuged at 800 rpm for 5 minutes. After removal of the supernatant by suction, the cells were suspended again in αMEM and the suspension was put on ivory pieces (diameter: 4 mm, thickness: 20 μm) in 100 μl portions. The ivory pieces were left to stand in a CO2 incubator for 2 hours to attach the osteoclasts thereto, and then taken out and gently transferred to a 48-well plate (IWAKI) to which a medium containing a test compound had been added in advance to determine the bone resorption activity 48 hours later according to the method described below. The medium containing the test compound was prepared by adding the test compound dissolved in HEPES buffer to the medium described in 1-1 to give the final concentrations shown in Tables 2 and 3.
1-3 Determination of Bone Resorption Activity by Staining of Ivory Pieces and Measurement of Bone Resorption Pit Area
The ivory pieces taken out of the medium were put into a tube containing 0.1 N aqueous ammonia and subjected to sonication treatment with a sonicator for 20-30 seconds to remove the osteoclasts. After being washed with distilled water to remove ammonia, the ivory pieces were dipped in a hematoxylin-eosin staining solution to stain resorption pits. The bone resorption pit formation rate was calculated based on microphotographs of stained ivory pieces according to the following equation by the use of an image analyzer. [formula]
The bone resorption inhibitory activity of test compounds were calculated according to the following equation. [formula]
A; Bone resorption pit formation rate obtained using no test compound
B; Bone resorption pit formation rate obtained using a test compound

male SD strain rats = experiment: Serum calcium content after intravenous administration to rats; assay type: in vivo, rat; settings: 60 minutes after administration; for Serum calcium Content: 0.5 ml i.v. tail vein, value ± standard error
Description: Four-weeks-old male SD strain rats (Clea Japan, Inc.) were fasted for 24 hours before the test and were offered in groups each consisting of 8 rats. Each rat of the control group was given 0.5 ml of physiological saline (Otsuka Pharmaceutical Co., Ltd.) containing 1% BSA (Sigma Chemical Co.) by intravenous administration through the tail vein. In the same manner, each rat of Compound 9-administered groups was given 0.5 ml of a solution of Compound 9 in physiological saline containing 1% BSA. Blood was collected from the right femoral artery of a rat 60 minutes after the administration and was centrifuged at 4° C. at 3000 rpm for 15 minutes to obtain a blood serum, and the serum calcium content was determined with calcium C-test WAKO (Wako Pure Chemical Industries, Ltd.). The results are expressed in terms of value ± standard error, and the difference was judged to be statistically significant at P <0.05 according to the Williams-Wilcoxon test.

Row | Substance | Bone resorption inhibitory activity (% inhibition) ([1]; compound concentration 10^-6 M) | further results
1 | Compound 1: SEQ ID NO:1; cyclic peptide Compound 15 condensed to the N-terminus of the Compound 17 peptide (GNWHGTAPDWLGKLSQELHKLQTYPRTNTGSGTP-NH2; lactam N-9) |  | Bone resorption inhibitory activity (% inhibition) ([1]; compound concentration 10^-7 M): 61%
2 | Compound 2: SEQ ID NO:2; cyclic peptide Compound 16 condensed to the N-terminus of the Compound 18 peptide (GNWHGTAPDVLGKLSQELHKLQTYPRTNTGSGTP-NH2; lactam N-9) |  | Bone resorption inhibitory activity (% inhibition) ([1]; compound concentration 10^-8 M): 36%
3 | Compound 3: SEQ ID NO:3; cyclic peptide Compound 16 condensed to the N-terminus of the Compound 19 peptide (GNWHGTAPDVLAALAAALAALAALPRTNTGSGTP-NH2; lactam (positions not given here); not fully specified (bridges); printed as ⌐GNWHGTAPDVLAALAAALAALAALPRTNTGSGTP—NH$_2$) | 65% | 
4 | Compound 4: SEQ ID NO:4; cyclic peptide Compound 16 condensed to the N-terminus of the Compound 20 peptide (GNWHGTAPDMLGTYTQDFNKFHTFPQTAIGVGAP-NH2; lactam (positions not given here); not fully specified (bridges); printed as ⌐GNWHGTAPDMLGTYTQDFNKFHTFPQTAIGVGAP—NH$_2$; also: cyclic peptide Compound 16 condensed at N-terminus) | 29% | 
5 | Compound 5: SEQ ID NO:5; cyclic peptide Compound 16 condensed to the N-terminus of the Compound 21 peptide (GNWHGTAPDGLGSLTEVLAKLAAYPRTNTGSGTP-NH2; lactam (positions not given here); not fully specified (bridges); printed as ⌐GNWHGTAPDGLGSLTEVLAKLAAYPRTNTGSGTP—NH$_2$; also: cyclic peptide Compound 16 condensed at N-terminus) | 35% | 
6 | Compound 6: SEQ ID NO:6; cyclic peptide Compound 16 condensed to the N-terminus of the Compound 22 peptide (GNWHGTAPDGLGSLTEVLAKLAAYPRSQTGAGTP-NH2; lactam (positions not given here); not fully specified (bridges); printed as ⌐GNWHGTAPDGLGSLTEVLAKLAAYPRSQTGAGTP—NH$_2$; also: cyclic peptide Compound 16 condensed at N-terminus) | 29% | 
7 | Compound 7: SEQ ID NO:7; cyclic peptide Compound 16 condensed to the N-terminus of the Compound 23 peptide (GNWHGTAPDGLGSLTEVLAKLAAY[Hyp]RTNTGSGT[Hyp]-NH2; lactam (positions not given here); not fully specified (bridges); also: cyclic peptide Compound 16 condensed at N-terminus) |  | Bone resorption inhibitory activity (% inhibition) ([1]; compound concentration 10^-8 M): 50%
8 | Compound 8: SEQ ID NO:8; cyclic peptide Compound 16 condensed to the N-terminus of the Compound 24 peptide (GNWHGTAPDGLGSLTEVLAKLAAYPRTNT[βAla]SGTP-NH2; lactam (positions not given here); not fully specified (bridges); also: cyclic peptide Compound 16 condensed at N-terminus) | 39% | 
9 | Compound 9: SEQ ID NO:9; cyclic peptide Compound 16 condensed to the N-terminus of the Compound 25 peptide (GNWHGTAPDGLGSLTEVLAKLAEYPRTNTGSGTP-NH2; lactam (positions not given here); not fully specified (bridges); printed as ⌐GNWHGTAPDGLGSLTEVLAKLAEYPRTNTGSGTP┐— NH$_2$; also: cyclic peptide Compound 16 condensed at N-terminus) | 53% | Serum calcium Content (male SD strain rats; compound concentration 1 μg/ml): 10.41 ± 0.13 mg/dL; Serum calcium Content (male SD strain rats; compound concentration 10 μg/ml): 10.20 ± 0.16 mg/dL; Serum calcium Content (male SD strain rats; compound concentration 100 μg/ml, P < 0.01 vs control): 7.54 ± 0.29 mg/dL; serum calcium content compared with that of the control group (male SD strain rats; concentration of 100 μg/l (so in the source), 0.5 ml i.v.): significantly lowered
10 | Compound 10: SEQ ID NO:10; cyclic peptide Compound 16 condensed to the N-terminus of the Compound 26 peptide (GNWHGTAPDGLGSLT[Gla]VLAKLAEYPRTNTGSGTP-NH2; lactam (positions not given here); not fully specified (bridges); also: cyclic peptide Compound 16 condensed at N-terminus) | 27% | 
11 | Compound 11: SEQ ID NO:11; cyclic peptide Compound 16 condensed to the N-terminus of the Compound 27 peptide (GNWHGTAPDGLGSLTEVLAKLA[Gla]YPRTNTGSGTP-NH2; lactam (positions not given here); not fully specified (bridges); also: cyclic peptide Compound 16 condensed at N-terminus) |  | Bone resorption inhibitory activity (% inhibition) ([1]; compound concentration 10^-7 M): 42%
12 | Compound 13: SEQ ID NO:13; cyclic peptide Compound 16 condensed to the N-terminus of the Compound 29 peptide (GNWHGTAPDGLGSLTEVLAKLAEYP[dR]TNTGSGTP-NH2; lactam (positions not given here); not fully specified (bridges); printed as ⌐GNWHGTAPDGLGSLTEVLAKLAEYPrTNTGSGTP┐— NH$_2$; also: cyclic peptide Compound 16 condensed at N-terminus) | 35% | 
13 | Compound 14: SEQ ID NO:14; cyclic peptide Compound 16 condensed to the N-terminus of the Compound 30 peptide (GNWHGTAPDGLGSLTEVLAKLAEYPKTNTGSGTP-NH2; lactam (positions not given here); not fully specified (bridges); printed as ⌐GNWHGTAPDGLGSLTEVLAKLAEYPKTNTGSGTP┐— NH$_2$; also: cyclic peptide Compound 16 condensed at N-terminus) | 40% | 
14 | H-LGKLSQELHKLQTYPRTNTGSGTP-NH2 [Compound 17, reference compound] |  | Bone resorption inhibitory activity (% inhibition) ([1]; compound concentration 10^-7 M): 0%
15 | H-Val-Leu-Ala-Ala-Leu-Ala-Ala-Ala-Leu-Ala-Ala-Leu-Ala-Ala-Leu-Pro-Arg-Thr-Asn-Thr-Gly-Ser-Gly-Thr-Pro-NH2 (H-VLAALAAALAALAALPRTNTGSGTP-NH2) [Compound 19, linear calcitonin-like peptide, comparison for Compound 3, reference compound] | 6% | 
16 | H-Val-Leu-Gly-Lys-Leu-Ser-Gln-Glu-Leu-His-Lys-Leu-Gln-Thr-Tyr-Pro-Arg-Thr-Asn-Thr-Gly-Ser-Gly-Thr-Pro-NH2 (H-VLGKLSQELHKLQTYPRTNTGSGTP-NH2) [Compound 18, linear partial calcitonin peptide, comparison for Compound 2, reference compound] |  | Bone resorption inhibitory activity (% inhibition) ([1]; compound concentration 10^-8 M): 15%
